Data reported in BindingDB's records for doi:10.1021/jm00034a005 (University of Paris, 1994).

Biological target: Neprilysin
Assay: In vivo inhibitory potency against neutral endopeptidase by displacement of [3H]HACBOGly binding in mouse kidney

Row | IC50 [nM] | Compound
1 | 3.5 | CC(NC(=O)C(CS)C(C)c1ccc(F)c(F)c1)C(=O)O (stereo not given) [2-[3-(3,4-Difluoro-phenyl)-2-mercaptomethyl-butyrylamino]-propionic acid]
2 | 4 | CC(c1ccccc1)C(CS)C(=O)NC(COCc1ccccc1)C(=O)O (stereo not given) [3-Benzyloxy-2-(2-mercaptomethyl-3-phenyl-butyrylamino)-propionic acid]
3 | 5.9 | CC(c1ccc(F)cc1)C(CS)C(=O)NC(Cc1ccc(O)cc1)C(=O)O (stereo not given) [2-[3-(4-Fluoro-phenyl)-2-mercaptomethyl-butyrylamino]-3-(4-hydroxy-phenyl)-propionic acid]
4 | 6.3 | CCC(NC(=O)C(CS)C(C)c1ccccc1)C(=O)O (stereo not given) [2-(2-Mercaptomethyl-3-phenyl-butyrylamino)-butyric acid]
5 | 2 | CC(NC(=O)C(CS)C(C)c1ccc2c(c1)OCO2)C(=O)O (stereo not given) [2-(3-Benzo[1,3]dioxol-5-yl-2-mercaptomethyl-butyrylamino)-propionic acid]
6 | 16 | CC(c1ccc(N)cc1)C(CS)C(=O)NC(Cc1ccc(O)cc1)C(=O)O (stereo not given) [2-[3-(4-Amino-phenyl)-2-mercaptomethyl-butyrylamino]-3-(4-hydroxy-phenyl)-propionic acid]
7 | 2 | CC(NC(=O)C(CS)C(C)c1ccc(F)cc1)C(=O)O (stereo not given) [2-[3-(4-Fluoro-phenyl)-2-mercaptomethyl-butyrylamino]-propionic acid]
8 | 5.2 | CC(c1ccc(F)c(F)c1)C(CS)C(=O)NC(Cc1ccc(O)cc1)C(=O)O (stereo not given) [2-[3-(3,4-Difluoro-phenyl)-2-mercaptomethyl-butyrylamino]-3-(4-hydroxy-phenyl)-propionic acid]
9 | 9 | CC(c1ccc(O)cc1)C(CS)C(=O)NC(Cc1ccc(O)cc1)C(=O)O (stereo not given) [3-(4-Hydroxy-phenyl)-2-[3-(4-hydroxy-phenyl)-2-mercaptomethyl-butyrylamino]-propionic acid]
10 | 2 | O=C(NC(Cc1ccc(O)cc1)C(=O)O)C(CS)Cc1ccccc1 (stereo not given) [3-(4-Hydroxy-phenyl)-2-(2-mercaptomethyl-3-phenyl-propionylamino)-propionic acid]
